Source: paper PMC8550792, “Evolution of kinase polypharmacology across HSP90 drug discovery” (Cell Chemical Biology, 2021)

Tests used:
Test in all cases: biochemical
Format in all cases: biochemical
[1] = target: T1, 382 unique human kinases (Homo sapiens, UniProt Q15208); settings: STK38/NDR1, 10 uM; for remaining activity at 10 µM: read-out: % Enzyme Activity (relative to DMSO controls)
T1 construct: purchased Reaction Biology (HotSpot contract assay)

[2] = target: T2, 382 unique human kinases (Homo sapiens, UniProt Q9UEE5); settings: DRAK1/STK17A, 10 uM; for remaining activity at 10 µM: read-out: % Enzyme Activity (relative to DMSO controls)
T2 construct: purchased Reaction Biology (HotSpot contract assay)
T2 sequence (Q9UEE5 1-414): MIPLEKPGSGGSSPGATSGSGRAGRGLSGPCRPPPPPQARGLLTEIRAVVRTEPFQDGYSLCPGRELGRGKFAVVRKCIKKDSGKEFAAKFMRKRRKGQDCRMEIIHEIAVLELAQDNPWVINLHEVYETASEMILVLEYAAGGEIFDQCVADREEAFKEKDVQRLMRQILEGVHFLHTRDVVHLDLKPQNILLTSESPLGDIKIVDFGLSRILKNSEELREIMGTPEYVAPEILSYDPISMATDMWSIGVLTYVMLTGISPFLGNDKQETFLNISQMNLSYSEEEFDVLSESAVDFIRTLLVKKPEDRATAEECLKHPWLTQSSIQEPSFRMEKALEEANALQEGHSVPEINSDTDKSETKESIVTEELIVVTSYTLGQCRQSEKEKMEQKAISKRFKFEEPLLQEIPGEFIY

[3] = target: T3, 382 unique human kinases (Homo sapiens, UniProt O00418); settings: kinase EEF2K, compound 10 uM; for remaining activity at 10 µM: read-out: % Enzyme Activity (relative to DMSO controls)
T3 construct: purchased Reaction Biology (HotSpot contract assay)
T3 sequence (O00418 1-725): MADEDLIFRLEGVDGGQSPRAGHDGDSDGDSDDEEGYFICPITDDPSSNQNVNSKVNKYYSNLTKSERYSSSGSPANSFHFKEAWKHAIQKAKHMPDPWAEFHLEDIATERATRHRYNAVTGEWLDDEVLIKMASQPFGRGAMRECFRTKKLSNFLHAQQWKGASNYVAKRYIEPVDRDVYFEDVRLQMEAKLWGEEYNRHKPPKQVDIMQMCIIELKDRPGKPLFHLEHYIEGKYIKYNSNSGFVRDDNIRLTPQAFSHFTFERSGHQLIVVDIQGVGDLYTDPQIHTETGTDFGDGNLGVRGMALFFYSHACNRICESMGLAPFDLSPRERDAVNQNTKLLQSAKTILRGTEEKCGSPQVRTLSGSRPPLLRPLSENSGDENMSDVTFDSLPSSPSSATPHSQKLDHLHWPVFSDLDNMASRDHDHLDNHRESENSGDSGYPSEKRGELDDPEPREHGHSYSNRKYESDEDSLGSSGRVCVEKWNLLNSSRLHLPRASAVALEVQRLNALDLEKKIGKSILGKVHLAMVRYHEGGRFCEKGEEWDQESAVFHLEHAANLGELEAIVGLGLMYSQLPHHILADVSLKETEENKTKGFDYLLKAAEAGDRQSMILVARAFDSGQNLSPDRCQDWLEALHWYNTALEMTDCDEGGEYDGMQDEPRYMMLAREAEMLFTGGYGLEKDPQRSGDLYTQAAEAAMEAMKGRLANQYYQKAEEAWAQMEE

[4] = target: T4, 382 unique human kinases (Homo sapiens, UniProt Q16539); settings: kinase P38a/MAPK14, compound 10 uM; for remaining activity at 10 µM: read-out: % Enzyme Activity (relative to DMSO controls)
T4 construct: purchased Reaction Biology (HotSpot contract assay)

[5] = target: T5, 382 unique human kinases (Homo sapiens, UniProt P36897); settings: kinase ALK5/TGFBR1, compound 10 uM; for remaining activity at 10 µM: read-out: % Enzyme Activity (relative to DMSO controls)
T5 construct: purchased Reaction Biology (HotSpot contract assay)
T5 sequence (P36897 34-503): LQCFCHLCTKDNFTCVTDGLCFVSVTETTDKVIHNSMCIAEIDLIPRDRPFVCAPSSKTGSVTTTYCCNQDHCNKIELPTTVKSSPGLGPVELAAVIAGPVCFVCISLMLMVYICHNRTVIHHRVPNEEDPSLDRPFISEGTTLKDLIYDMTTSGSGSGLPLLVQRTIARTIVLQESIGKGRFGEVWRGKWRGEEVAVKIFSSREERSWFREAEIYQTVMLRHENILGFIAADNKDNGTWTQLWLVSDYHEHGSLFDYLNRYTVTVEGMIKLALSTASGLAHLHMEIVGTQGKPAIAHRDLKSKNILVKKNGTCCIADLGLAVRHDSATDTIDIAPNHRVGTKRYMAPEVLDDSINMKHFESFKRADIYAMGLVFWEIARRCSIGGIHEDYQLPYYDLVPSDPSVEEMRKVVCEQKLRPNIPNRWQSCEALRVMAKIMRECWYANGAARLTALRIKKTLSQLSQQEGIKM

[6] = target: T6, 382 unique human kinases (Homo sapiens, UniProt Q9UPZ9); settings: kinase LCK2/ICK, compound 10 uM; for remaining activity at 10 µM: read-out: % Enzyme Activity (relative to DMSO controls)
T6 construct: purchased Reaction Biology (HotSpot contract assay)
T6 sequence (Q9UPZ9 1-632): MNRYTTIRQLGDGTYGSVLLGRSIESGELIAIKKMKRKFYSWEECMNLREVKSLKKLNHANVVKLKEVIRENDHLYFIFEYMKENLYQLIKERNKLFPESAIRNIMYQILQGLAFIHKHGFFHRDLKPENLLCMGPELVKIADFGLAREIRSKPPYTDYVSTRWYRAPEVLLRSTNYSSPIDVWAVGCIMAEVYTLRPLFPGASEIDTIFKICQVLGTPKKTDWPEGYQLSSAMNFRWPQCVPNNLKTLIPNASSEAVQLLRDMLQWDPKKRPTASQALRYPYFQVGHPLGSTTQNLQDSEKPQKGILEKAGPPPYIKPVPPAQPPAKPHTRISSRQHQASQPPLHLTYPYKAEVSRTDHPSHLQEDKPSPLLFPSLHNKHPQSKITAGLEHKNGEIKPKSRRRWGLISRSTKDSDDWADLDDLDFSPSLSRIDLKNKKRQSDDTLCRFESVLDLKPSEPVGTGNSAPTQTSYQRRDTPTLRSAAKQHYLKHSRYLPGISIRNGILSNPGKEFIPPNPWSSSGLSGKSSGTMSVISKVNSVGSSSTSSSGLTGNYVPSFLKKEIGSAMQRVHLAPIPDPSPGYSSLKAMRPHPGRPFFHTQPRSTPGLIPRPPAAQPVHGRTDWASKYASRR

[7] = target: T7, 382 unique human kinases (Homo sapiens, UniProt P08581, Y1230D); settings: c-MET (Y1230D), compound at 10 uM, duplicate values; for remaining activity at 10 µM: read-out: % Enzyme Activity (relative to DMSO controls)
T7 construct: purchased Reaction Biology (HotSpot contract assay)

[8] = target: T8, 382 unique human kinases (Homo sapiens, UniProt P78362); settings: kinase SRPK2, compound 10 uM; for remaining activity at 10 µM: read-out: % Enzyme Activity (relative to DMSO controls)
T8 construct: purchased Reaction Biology (HotSpot contract assay)

[9] = target: T9, 382 unique human kinases (Homo sapiens, UniProt P22612); settings: kinase PKAcg, compound 10 uM; for remaining activity at 10 µM: read-out: % Enzyme Activity (relative to DMSO controls)
T9 construct: purchased Reaction Biology (HotSpot contract assay)
T9 sequence (P22612 whole entry): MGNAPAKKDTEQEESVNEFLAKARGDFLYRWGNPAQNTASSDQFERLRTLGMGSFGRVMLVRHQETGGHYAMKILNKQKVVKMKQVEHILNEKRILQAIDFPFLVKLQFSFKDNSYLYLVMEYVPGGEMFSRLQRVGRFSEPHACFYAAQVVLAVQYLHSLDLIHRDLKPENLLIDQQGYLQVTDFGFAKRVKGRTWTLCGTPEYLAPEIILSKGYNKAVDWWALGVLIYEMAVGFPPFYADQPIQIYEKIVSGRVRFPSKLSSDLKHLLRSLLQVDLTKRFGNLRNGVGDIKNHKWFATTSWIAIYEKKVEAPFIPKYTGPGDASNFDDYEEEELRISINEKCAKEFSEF

T1 sequence (Q15208 whole entry): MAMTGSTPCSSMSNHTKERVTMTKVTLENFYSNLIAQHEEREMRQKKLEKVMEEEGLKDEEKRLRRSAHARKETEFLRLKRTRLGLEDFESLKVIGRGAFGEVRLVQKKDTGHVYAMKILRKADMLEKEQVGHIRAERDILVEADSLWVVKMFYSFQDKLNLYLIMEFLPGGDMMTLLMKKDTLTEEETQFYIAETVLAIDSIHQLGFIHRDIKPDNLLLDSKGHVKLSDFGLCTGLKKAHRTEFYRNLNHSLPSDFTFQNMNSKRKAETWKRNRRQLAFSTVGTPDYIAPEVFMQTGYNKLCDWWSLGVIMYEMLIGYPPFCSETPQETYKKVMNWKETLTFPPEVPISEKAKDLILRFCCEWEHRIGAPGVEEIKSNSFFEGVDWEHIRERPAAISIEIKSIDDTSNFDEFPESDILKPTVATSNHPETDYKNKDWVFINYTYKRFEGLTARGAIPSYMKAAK
T8 sequence (P78362 whole entry): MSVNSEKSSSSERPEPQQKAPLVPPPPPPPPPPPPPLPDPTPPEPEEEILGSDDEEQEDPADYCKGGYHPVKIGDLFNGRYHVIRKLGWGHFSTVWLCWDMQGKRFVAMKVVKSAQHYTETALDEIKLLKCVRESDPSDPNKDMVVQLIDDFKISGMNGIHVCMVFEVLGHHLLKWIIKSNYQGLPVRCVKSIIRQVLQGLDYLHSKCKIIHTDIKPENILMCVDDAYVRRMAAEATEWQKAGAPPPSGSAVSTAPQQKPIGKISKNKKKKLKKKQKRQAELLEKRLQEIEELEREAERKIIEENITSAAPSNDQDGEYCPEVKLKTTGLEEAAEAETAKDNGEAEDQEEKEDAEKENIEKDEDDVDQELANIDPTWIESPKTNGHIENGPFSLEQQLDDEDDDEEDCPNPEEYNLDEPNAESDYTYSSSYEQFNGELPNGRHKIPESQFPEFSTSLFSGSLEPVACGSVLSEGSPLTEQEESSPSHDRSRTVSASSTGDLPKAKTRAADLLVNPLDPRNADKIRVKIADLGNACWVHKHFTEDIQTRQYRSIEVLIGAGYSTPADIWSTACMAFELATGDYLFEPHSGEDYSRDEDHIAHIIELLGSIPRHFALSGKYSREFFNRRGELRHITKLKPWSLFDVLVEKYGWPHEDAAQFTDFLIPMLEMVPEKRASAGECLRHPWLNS
T4 sequence (Q16539 whole entry): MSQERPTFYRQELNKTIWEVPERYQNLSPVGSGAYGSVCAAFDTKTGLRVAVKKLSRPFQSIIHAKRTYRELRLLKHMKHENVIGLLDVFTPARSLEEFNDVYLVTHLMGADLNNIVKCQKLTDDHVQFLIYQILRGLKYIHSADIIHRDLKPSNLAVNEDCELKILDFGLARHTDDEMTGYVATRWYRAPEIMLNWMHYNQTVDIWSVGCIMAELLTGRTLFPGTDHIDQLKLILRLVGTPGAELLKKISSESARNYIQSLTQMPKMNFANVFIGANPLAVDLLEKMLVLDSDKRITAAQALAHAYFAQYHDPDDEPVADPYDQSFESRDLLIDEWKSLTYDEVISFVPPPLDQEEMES

SMILES | % Enzyme Activity (relative to DMSO controls) [1] [%] | remaining activity at 10 µM [1] [%] | % Enzyme Activity (relative to DMSO controls) [2] [%] | remaining activity at 10 µM [2] [%] | remaining activity at 10 µM [3] [%] | remaining activity at 10 µM [4] [%] | remaining activity at 10 µM [5] [%] | remaining activity at 10 µM [6] [%] | remaining activity at 10 µM [7] [%] | remaining activity at 10 µM [8] [%] | remaining activity at 10 µM [9] [%] | % Enzyme Activity (relative to DMSO controls) [3] [%] | % Enzyme Activity (relative to DMSO controls) [4] [%] | % Enzyme Activity (relative to DMSO controls) [5] [%] | % Enzyme Activity (relative to DMSO controls) [6] [%] | % Enzyme Activity (relative to DMSO controls) [7] [%] | % Enzyme Activity (relative to DMSO controls) [8] [%] | % Enzyme Activity (relative to DMSO controls) [9] [%]
CCNC(=O)c1noc(-c2cc(C(C)C)c(O)cc2O)c1-c1ccc(CN2CCOCC2)cc1 [Luminespib] | 98.10 | 99 | 99.90 | 99.9 |  |  |  |  |  |  |  |  |  |  |  |  |  | 
CC(C)c1cc(-c2n[nH]c(=O)n2-c2ccc3c(ccn3C)c2)c(O)cc1O [Ganetespib (STA9090)] |  |  |  |  | 89.2 | 89.6 | 90.1 | 90.4 | 109 | 89.8 | 101 |  |  |  |  |  |  | 
CCNC(=O)c1noc(-c2cc(C(C)C)c(O)cc2O)c1-c1ccc(CN2CCOCC2)cc1 [Luminespib (AUY-922)] |  |  |  |  | 105 | 95.1 | 94.7 | 113 | 110 | 99.5 | 104 | 102.88 | 90.33 | 93.53 | 109.49 | 109.18 | 97.52 | 102.38
CC(C)c1cc(-c2n[nH]c(=O)n2-c2ccc3c(ccn3C)c2)c(O)cc1O [Ganetespib] |  | 95.7 |  | 106 |  |  |  |  |  |  |  |  |  |  |  |  |  | 
